Like-named read-outs stand apart in the source and are kept apart here.
How the values were obtained:
[1] = Exposure at the highest dose tested in animals without toxicity; type: in vivo; settings: human, plasma; exposure limit for humans
Experimental: The planned dose-escalation schema for the SAD study was based on preclinical pharmacodynamics (PD), safety and toxicology data translated to humans using body surface ratios to ensure a large safety margin. For the MAD study, safety and PK data from the SAD study were used to determine doses. In both studies, all safety data for a given cohort/dose level were evaluated by a Data Safety Monitoring Board that was guided by predefined stopping criteria. The stopping criteria were based on the seriousness and severity combined with frequency of AEs that would lead to either not proceeding to the next dose level or stopping the trial. Dose escalation was also to be halted if the peak plasma levels exceeded that corresponding to the NOAEL in the most sensitive animal species (that is, the rat) in preclinical toxicology studies.

dogs = assay: Blood pressure, heart rate, ECG and body temperature in conscious dogs (GLP); type: in vivo
Experimental: The dogs had telemetry transmitters for arterial blood pressure, body temperature and ECG measurements. The study was conducted in two parts.

THC behavioral effects = assay: Inhibition of THC effects in vivo (summary over behavioral models); design: species or system mice, rats and non-human primates
Experimental: Statistical analyses were carried out using GraphPad Prism, Statistica (Statsoft) or SigmaPlot (Systat Software) software. […] When appropriate, significant main effects were analyzed by subsequent multiple paired comparisons or multiple comparisons versus the control group using the appropriate post hoc test (Dunnett, Tukey or Sidak test). Different but similar post hoc tests were used because the experiments were performed by independent research groups that used similar but not identical statistical procedures. […] For non-parametric analysis, a Kruskal–Wallis ANOVA was used, followed, when appropriate, by the Mann–Whitney test for pairwise comparisons. Unless otherwise stated, all the performed statistical tests were two-sided. The ID50 or IC50 was estimated by nonlinear regression using the ‘log(inhibitor) versus response’ equation model with GraphPad Prism software. All results are expressed as mean ± s.e.m. The significance threshold was set at P < 0.05.

[2] = biological target: T1, hERG (human ether-a-go-go-related gene) (Homo sapiens, UniProt Q12809); assay: hERG tail current in transfected HEK293 cells (GLP); type: cell-based; settings: GLP safety pharmacology
T1 construct: expressed in transfected cells; host or cells: HEK293 (stably transfected)
T1 sequence (Q12809 whole entry): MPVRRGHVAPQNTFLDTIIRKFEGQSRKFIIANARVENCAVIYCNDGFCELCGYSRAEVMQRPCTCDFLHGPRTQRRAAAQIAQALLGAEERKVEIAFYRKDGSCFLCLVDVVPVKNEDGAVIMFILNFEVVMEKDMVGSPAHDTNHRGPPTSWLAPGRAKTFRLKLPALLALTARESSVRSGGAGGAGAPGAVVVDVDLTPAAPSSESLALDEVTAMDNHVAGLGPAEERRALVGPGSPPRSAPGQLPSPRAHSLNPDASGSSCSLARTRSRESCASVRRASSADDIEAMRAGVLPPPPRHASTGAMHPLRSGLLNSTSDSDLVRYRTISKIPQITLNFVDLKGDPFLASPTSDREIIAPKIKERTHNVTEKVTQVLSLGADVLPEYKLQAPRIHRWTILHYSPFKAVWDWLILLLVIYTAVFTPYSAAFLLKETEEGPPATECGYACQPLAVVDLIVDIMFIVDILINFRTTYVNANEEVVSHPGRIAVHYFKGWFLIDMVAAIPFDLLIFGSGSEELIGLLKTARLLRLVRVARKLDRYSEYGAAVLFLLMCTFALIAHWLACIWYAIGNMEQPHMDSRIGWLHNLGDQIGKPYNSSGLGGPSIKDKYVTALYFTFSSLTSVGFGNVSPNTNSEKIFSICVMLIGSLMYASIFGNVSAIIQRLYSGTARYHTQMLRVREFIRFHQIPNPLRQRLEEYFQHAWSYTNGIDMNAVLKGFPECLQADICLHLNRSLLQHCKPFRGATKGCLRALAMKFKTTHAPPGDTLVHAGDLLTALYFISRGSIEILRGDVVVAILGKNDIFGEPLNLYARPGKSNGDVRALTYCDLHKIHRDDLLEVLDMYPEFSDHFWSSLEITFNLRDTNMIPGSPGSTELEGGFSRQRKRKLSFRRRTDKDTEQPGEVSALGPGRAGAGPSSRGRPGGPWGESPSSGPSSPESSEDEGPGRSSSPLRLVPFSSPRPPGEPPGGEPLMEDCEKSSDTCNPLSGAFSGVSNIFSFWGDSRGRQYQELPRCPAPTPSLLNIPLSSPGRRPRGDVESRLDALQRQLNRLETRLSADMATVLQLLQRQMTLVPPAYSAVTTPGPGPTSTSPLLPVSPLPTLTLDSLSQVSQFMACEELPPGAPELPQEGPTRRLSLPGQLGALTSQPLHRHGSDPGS
Experimental: Cells were clamped to −80 mV, depolarized to 0 mV for 5 s allowing activation of hERG current and repolarized to −50 mV for 5 s allowing hERG tail current to deactivate. This experimental procedure was repeated at a frequency of 0.06 Hz. Currents were filtered at 1 kHz and acquired at the frequency of 2 kHz. Amplitude of hERG tail current was measured during the repolarizing pulse from 0 to −50 mV. […] Currents were measured before and after exposure to the test compound. The individual data were collected using pClamp software (release 8.2, AXON Instruments, Molecular Devices).

[3] = Phase 2a study, plasma pharmacokinetics; type: in vivo, human; settings: for Cmax: human, plasma, in the range predicted from animal data
Experimental: THC and its metabolites (11-OH-THC and 11-COOH-THC) were assessed at the same timepoints. […] THC and its metabolites analyses were performed using PD dataset (n = 13 for both doses).
PK parameters for AEF0117 were subject to descriptive statistics separately for each treatment group.

AR (androgen receptor) = assay: Eurofins binding screen; settings: 10 µM
CD-1 Swiss male mice = assay: i.v. self-administration of WIN55,212-2 in mice; type: in vivo
Experimental: Before the start of the self-administration sessions, mice were implanted under anesthesia with catheters into the right jugular vein. […] Mice were trained under a fixed ratio 1 (FR1) schedule of reinforcement.
Two-hour daily self-administration sessions were conducted 6 d per week for 18 d. Mice received corn oil vehicle (2 ml kg^–1) orally on days 9 and 10 to be habituated to the oral gavage procedure.

[4] = SAD study, plasma pharmacokinetics; type: in vivo; settings: human, oral; for Cmax: read-out: Cmax, mean (±SD); for half-life: SAD, evaluated 0-144 h, underestimated, read-out: t½, min-max
Experimental: For both SAD and MAD studies, the PK parameters were calculated using standard non-compartmental methods for those with sufficient plasma concentration data.

[5] = biological target: T2, hCB1 point mutant p.E1.49G (Homo sapiens, UniProt P21554, E133G); assay: THC-induced decrease in cellular respiration, HEK293 cells with mutant hCB1; type: cell-based; settings: HEK293, hCB1 p.E1.49G, THC 1 µM
T2 construct: expressed in transfected cells; host or cells: HEK293
T2 sequence (P21554 whole entry E133G): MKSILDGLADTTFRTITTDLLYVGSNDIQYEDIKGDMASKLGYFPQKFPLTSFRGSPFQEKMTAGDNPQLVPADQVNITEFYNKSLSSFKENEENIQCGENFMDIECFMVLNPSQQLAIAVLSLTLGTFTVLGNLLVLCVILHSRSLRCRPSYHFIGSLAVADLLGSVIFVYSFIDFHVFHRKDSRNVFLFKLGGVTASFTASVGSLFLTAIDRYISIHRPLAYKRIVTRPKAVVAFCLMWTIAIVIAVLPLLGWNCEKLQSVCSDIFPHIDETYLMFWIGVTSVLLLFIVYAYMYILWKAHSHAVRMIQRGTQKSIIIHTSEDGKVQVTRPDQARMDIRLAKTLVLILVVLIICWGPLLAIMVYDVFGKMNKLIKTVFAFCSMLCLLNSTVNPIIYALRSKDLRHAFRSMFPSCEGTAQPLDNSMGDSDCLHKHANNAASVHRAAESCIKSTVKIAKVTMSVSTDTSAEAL
Experimental: After 15 min of incubation, THC (1 µM, dissolved in ethanol 0.0034%) or vehicle was added in the culture dishes for 30 min.
Cellular respiration was measured in a calibrated oxygraph (Oxygraph-2k, Oroboros Instruments) equipped with a Clark electrode and DatLab software. Oxygen consumption (OC) rate was used to measure cellular respiration.

mice [6] = assay: THC-induced impairment of pre-pulse inhibition; type: in vivo
mice [7] = assay: Precipitated withdrawal in THC-dependent mice; type: in vivo; settings: highest dose tested […]
Experimental: From day 1 to days 4–5, mice were injected i.p. with vehicle or THC (20 mg kg^−1) twice per day. On the last day of treatment, mice in the THC group received rimonabant or AEF0117. All other animals received the respective vehicle. […] For the measure of precipitated withdrawal, mice were placed in a novel home cage, and a video camera was positioned in front of each cage to record behavior. Scoring was performed for 1 min every 5-min period. Two withdrawal signs were analyzed—paw tremors and head shaking—because they are the most common signs of THC withdrawal observed in mice[14].

CYP and phase II enzymes = assay: Drug metabolic pathways (CYP and phase II enzymes), metabolites; type: in vitro ADME
[8] = Self-administration of WIN 55,212-2, mice
[9] = Impairment of pre-pulse inhibition

Compound: COc1ccc(CO[C@H]2CC[C@@]3(C)C(=CC[C@H]4[C@@H]5CC[C@H](C(C)=O)[C@@]5(C)CC[C@@H]43)C2)cc1 [AEF0117, 3β-(4-methoxybenzyloxy)pregn-5-en-20-one]
- AUC [1]: 41.6 µg·h/mL
- Cmax [1]: 4360 ng/mL
- adverse effects on blood pressure, heart rate, ECG and body temperature (dogs): did not show any adverse effects
- most observed ID50 for inhibiting the effects of THC (THC behavioral effects; mice and non-human primates, oral): 5 µg/kg
- most observed ID50 for inhibiting the effects of THC (THC behavioral effects; mice, rats and non-human primates): 5 µg/kg
- ID100 for THC effects in fewer cases (THC behavioral effects; oral, 3 h before THC): 1.5 µg/kg
- most frequently observed ID100 for THC effects (THC behavioral effects; oral, 3 h before THC): 15 µg/kg
- adverse effects on hERG tail current [2]: did not show any adverse effects
- plasma concentration below LLOQ after washout ([3]; 0.06 mg first, >=14 d later, 3 participants): 0.0002 to 0.0093 ng/mL
- mean concentration 24 h after 5th dose higher than 24 h after 1st dose ([3]; Phase 2a, 0.06 and 1 mg): 30-50%
- Cmax ([3]; 0.06 mg): ≥ 0.15 ng/mL
- Cmax ([3]; 1 mg): ≥ 1.5 ng/mL
- Percent inhibition of control specific binding (AR (androgen receptor)): 20%
- % Inhibition (CD-1 Swiss male mice; [8]): 80%
- ID50 (CD-1 Swiss male mice; [8]): 5 µg/kg
- ID100 (CD-1 Swiss male mice; [8]): 15 µg/kg
- i.v. self-administration of WIN55,212-2 (CD-1 Swiss male mice; mice, 15 µg kg^−1 oral): significantly reduced
- Cmax ([4]; both sexes, SAD Day 1, 2 mg): 14.7 ± 4.3 ng/mL
- Tmax ([4]; both sexes, SAD Day 1, 2 mg, read-out: tmax, median (range)): 3 h
- half-life ([4]; both sexes, 0.6 mg): 75.9 to 229 h
- Tmax ([4]; healthy volunteers, read-out: Tmax): ~3 h
- Cmax ([4]; SAD Day 1, 0.2 mg): 1.3 ± 0.3 ng/mL
- Tmax ([4]; SAD Day 1, 0.2 mg, read-out: tmax, median (range)): 3 h
- Cmax ([4]; SAD Day 1, 0.6 mg): 3.5 ± 1 ng/mL
- Tmax ([4]; SAD Day 1, 0.6 mg, read-out: tmax, median (range)): 2.5 h
- Cmax ([4]; SAD Day 1, 6 mg): 38.6 ± 8.1 ng/mL
- Tmax ([4]; SAD Day 1, 6 mg, read-out: tmax, median (range)): 2 h
- half-life ([4]; 2 mg): 84.4 to 180 h
- half-life ([4]; 6 mg): 69.3 to 162 h
- Tmax ([4]; healthy volunteers, SAD and MAD, read-out: median tmax): 2 to 3 h
- effect on cellular respiration with mutant hCB1 [5]: loss of effect
- THC impairment in sensory motor gating (PPI) (mice [6]): inhibited
- % Inhibition (mice [6]; [9]): 100%
- ID50 (mice [6]; [9]): 4.5 µg/kg
- ID100 (mice [6]; [9]): 15 µg/kg
- Overall effect: precipitated withdrawal in THC-dependent mice (mice [7]): No
- interaction with major drug metabolic pathways (CYP and phase II enzymes) (CYP and phase II enzymes): does not modify the activity of, nor is it notably metabolized by

Source: PMC10287566, “Signaling-specific inhibition of the CB1 receptor for cannabis use disorder: phase 1 and phase 2a randomized trials” (Nature Medicine, 2023)
